Measurements taken from ChEMBL document CHEMBL1201862, “PubChem BioAssay data set” (2004).
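Protocol summary: plate cells (96-well), add compound at 5 concentrations, incubate 48 h, interpolate endpoints linearly. The concentration for 50% growth inhibition is given as GI50.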 Active and inactive are the calls of the source. Rule as the data show it: active = GI50 up to about 1.1 µM and inactive = higher.

Key:
Assay in all cases: growth of human tumour cells (NCI), 48 h
CCRF-CEM = tested on: CCRF-CEM
COLO 205 = tested on: COLO 205
DLD-1 = tested on: DLD-1
EKVX = tested on: EKVX
NCI-H23 = tested on: NCI-H23
OVCAR-4 = tested on: OVCAR-4
OVCAR-5 = tested on: OVCAR-5
RPMI-8226 = tested on: RPMI-8226
SF-539 = tested on: SF-539
SK-MEL-28 = tested on: SK-MEL-28
SNB-75 = tested on: SNB-75
SW-620 = tested on: SW-620
TK-10 = tested on: TK-10
A498 = tested on: A498
DU-145 = tested on: DU-145
MCF7 = tested on: MCF7
MDA-MB-435 = tested on: MDA-MB-435
NCI/ADR-RES = tested on: NCI/ADR-RES
OVCAR-8 = tested on: OVCAR-8
UACC-257 = tested on: UACC-257

Measured: GI50

COC(=O)C1=CCON(c2ccccc2)C1c1ccccc1 (stereo not given)
inactive: CCRF-CEM 47.4 µM | COLO 205 65.8 µM | DLD-1 39.1 µM | EKVX 42.1 µM | NCI-H23 33.2 µM | OVCAR-4 > 10 µM | OVCAR-5 94.2 µM | RPMI-8226 29.2 µM | SF-539 > 100 µM | SK-MEL-28 43.5 µM | SNB-75 49.5 µM | SW-620 70.5 µM | TK-10 44.9 µM

O=C1c2ccccc2C(=O)N1[C@@H](Cc1ccccc1)C(=O)n1cccc1CO
inactive: A498 > 100 µM | CCRF-CEM > 100 µM | COLO 205 > 100 µM | DU-145 > 100 µM | EKVX > 100 µM | MCF7 > 100 µM | MDA-MB-435 > 100 µM | NCI-H23 > 100 µM | NCI/ADR-RES > 100 µM | OVCAR-4 > 100 µM | OVCAR-5 > 100 µM | OVCAR-8 > 100 µM | RPMI-8226 93.8 µM | SF-539 > 100 µM | SK-MEL-28 > 100 µM | SNB-75 > 100 µM | SW-620 > 100 µM | TK-10 > 100 µM | UACC-257 > 100 µM

CC1=CC[C@@H]2[C@@H](CC[C@@]2(C)O)C(C)(C)[C@H]1CC[C@@H]1[C@@]2(C)CCC(=O)C(C)(C)O[C@@H]2CC[C@]1(C)O
inactive: A498 31 µM | CCRF-CEM 23.3 µM | COLO 205 25.6 µM | DU-145 42.9 µM | EKVX 42.1 µM | MCF7 37.3 µM | MDA-MB-435 30.7 µM | NCI-H23 34.3 µM | NCI/ADR-RES 21.9 µM | OVCAR-4 39.1 µM | OVCAR-5 71 µM | OVCAR-8 24.8 µM | RPMI-8226 19.7 µM | SF-539 17.3 µM | SK-MEL-28 31.2 µM | SNB-75 65.6 µM | SW-620 32.7 µM | TK-10 83.4 µM | UACC-257 30.3 µM

O=C(c1ccc(Cl)cc1)N1CCN=C1c1cc2ccccc2c2ccccc12
inactive: A498 15.4 µM | CCRF-CEM 27.4 µM | COLO 205 16 µM | DU-145 17.9 µM | EKVX 13.8 µM | MCF7 17.7 µM | MDA-MB-435 15.7 µM | NCI-H23 17.6 µM | NCI/ADR-RES 15.6 µM | OVCAR-4 14.2 µM | OVCAR-5 19.8 µM | OVCAR-8 17.3 µM | RPMI-8226 19.8 µM | SF-539 15.7 µM | SK-MEL-28 15.5 µM | SNB-75 12.4 µM | SW-620 17.3 µM | TK-10 15.2 µM | UACC-257 17.5 µM
